What was measured:
Assay in all cases: AE Enzyme Inhibition Assay
[1] = molecular target: T1, Clan CD, family C13, asparaginyl endopeptidase-like cysteine peptidase (Trichomonas vaginalis (strain ATCC PRA-98 / G3), UniProt A2DYT2)
T1 sequence (A2DYT2 whole entry): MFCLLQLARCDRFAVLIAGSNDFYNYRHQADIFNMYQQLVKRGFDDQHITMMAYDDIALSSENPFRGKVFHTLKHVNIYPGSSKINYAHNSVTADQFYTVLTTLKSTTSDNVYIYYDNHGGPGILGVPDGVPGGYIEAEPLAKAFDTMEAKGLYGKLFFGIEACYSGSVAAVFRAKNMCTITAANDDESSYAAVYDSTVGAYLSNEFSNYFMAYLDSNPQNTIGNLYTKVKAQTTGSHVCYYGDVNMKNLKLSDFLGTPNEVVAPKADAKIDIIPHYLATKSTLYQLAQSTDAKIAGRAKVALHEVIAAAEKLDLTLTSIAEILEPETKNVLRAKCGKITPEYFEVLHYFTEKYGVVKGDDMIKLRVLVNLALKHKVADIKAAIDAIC
Experimental: (§1) AE activity in the induction medium was measured with the substrate Cbz-Ala-Ala-Asn-AMC. In a black 96-well microtiter plate, aza-peptidyl inhibitors were added to the reaction buffer containing the activated enzyme, and allowed to incubate at room temperature for 20 min. Then, substrate Cbz- Ala-Ala-Asn-AMC was added and the reaction allowed proceeding for 20 min. Plotting the relative fluorescence units (RFU)/min against the inhibitor concentration (uM) permitted calculation of the IC50 value.

Legumain [2] = molecular target: T2, Legumain (Ixodes ricinus, UniProt Q6PRC7); conditions: 25 °C
T2 sequence (Q6PRC7 whole entry): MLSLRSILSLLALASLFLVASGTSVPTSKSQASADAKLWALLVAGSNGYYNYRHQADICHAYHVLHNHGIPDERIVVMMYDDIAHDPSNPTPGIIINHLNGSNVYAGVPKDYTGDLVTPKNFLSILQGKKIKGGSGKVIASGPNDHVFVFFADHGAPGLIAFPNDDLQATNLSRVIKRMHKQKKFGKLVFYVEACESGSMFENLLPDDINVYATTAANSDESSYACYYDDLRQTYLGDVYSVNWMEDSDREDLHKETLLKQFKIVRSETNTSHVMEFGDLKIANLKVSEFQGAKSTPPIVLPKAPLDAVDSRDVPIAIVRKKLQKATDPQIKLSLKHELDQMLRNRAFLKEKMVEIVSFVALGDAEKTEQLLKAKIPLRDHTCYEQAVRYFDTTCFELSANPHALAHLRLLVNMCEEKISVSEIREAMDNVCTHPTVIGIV
Experimental: as §1

Legumain [3] = molecular target: T3, Legumain (Schistosoma mansoni, UniProt Q9NFY9)
T3 sequence (Q9NFY9 whole entry): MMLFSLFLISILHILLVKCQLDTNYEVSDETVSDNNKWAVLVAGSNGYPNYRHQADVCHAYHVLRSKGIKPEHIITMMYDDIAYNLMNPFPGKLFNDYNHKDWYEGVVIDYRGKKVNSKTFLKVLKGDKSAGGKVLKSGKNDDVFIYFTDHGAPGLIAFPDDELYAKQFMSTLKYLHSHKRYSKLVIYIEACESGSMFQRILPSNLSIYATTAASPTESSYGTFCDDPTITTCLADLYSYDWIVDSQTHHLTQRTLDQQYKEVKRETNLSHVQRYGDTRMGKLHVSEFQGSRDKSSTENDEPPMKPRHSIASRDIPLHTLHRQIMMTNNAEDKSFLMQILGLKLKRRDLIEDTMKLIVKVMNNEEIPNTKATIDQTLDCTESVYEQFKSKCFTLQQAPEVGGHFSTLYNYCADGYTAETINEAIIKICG
Experimental: as §1

Row | Compound | IC50 ([1]; pH 6.8, 22 °C) | IC50 (Legumain [2]) | IC50 (Legumain [3]; pH 6.8, 22 °C) | IC50 ([1]; 25 °C) | IC50 (Legumain [3]; 25 °C)
1 | C[C@H](NC(=O)OCc1ccccc1)C(=O)N[C@@H](C)C(=O)NN(CC(N)=O)C(=O)C=CC(=O)OCc1ccccc1 [benzyl (2E)-3-{N'-[(2S)-2-[(2S)-2-{[(benzyloxy)carbonyl]amino}propanamido]propanoyl]-N-(carbamoylmethyl)hydrazinecarbonyl}prop-2-enoate] | 5 nM | < 1 nM |  |  | 
2 | CCCCN(CCCC)C(=O)C=CC(=O)N(CC(N)=O)NC(=O)[C@H](C)NC(=O)[C@H](C)NC(=O)OCc1ccccc1 [benzyl N-[(1S)-1-{[(1S)-1-[N'-(carbamoylmethyl)-N'-[(2E)-3-(dibutylcarbamoyl)prop-2-enoyl]hydrazinecarbonyl]ethyl]carbamoyl}ethyl]carbamate] | 1000 nM | 100 nM | 550 nM |  | 
3 | CCOC(=O)C=CC(=O)N(CC(N)=O)NC(=O)[C@H](C)NC(=O)[C@H](C)NC(=O)CCCC[C@@H]1SC[C@@H]2NC(=O)N[C@@H]21 [ethyl (2E)-4-[(2S)-2-[(2S)-2-{5-[(3aS,4S,6aR)-2-oxo-hexahydro-1H-thieno[3,4-d]imidazolidin-4-yl]pentanamido}propanamido]-N'-(carbamoylmethyl)propanehydrazido]-4-oxobut-2-enoate] |  | 2.8 nM |  | < 10 nM | 10 nM
4 | C[C@H](NC(=O)OCc1ccccc1)C(=O)N[C@@H](C)C(=O)NN(CC(N)=O)C(=O)C=CC(=O)N(Cc1ccccc1)Cc1cccc2ccccc12 [benzyl N-[(1S)-1-{[(2S)-1-[(2E)-N-benzyl-3-[N-(carbamoylmethyl)hydrazido]-N-(naphthalen-1-ylmethyl)prop-2-enamide]-1-oxopropan-2-yl]carbamoyl}ethyl]carbamate] |  | 6 nM |  | < 1 nM | 62 nM
5 | COc1ccc(CN(Cc2ccccc2)C(=O)C=CC(=O)N(CC(N)=O)NC(=O)[C@H](C)NC(=O)[C@H](C)NC(=O)OCc2ccccc2)cc1 [benzyl N-[(1S)-1-{[(2S)-1-[(2E)-N-benzyl-3-[N-(carbamoylmethyl)hydrazido]-N-[(4-methoxyphenyl)methyl]prop-2-enamide]-1-oxopropan-2-yl]carbamoyl}ethyl]carbamate] |  | 12 nM | 90 nM | 2.3 nM | 
6 | C[C@H](NC(=O)OCc1ccccc1)C(=O)N[C@@H](C)C(=O)NN(CC(N)=O)C(=O)C=CC(=O)c1ccccc1 [benzyl N-[(1S)-1-{[(2S)-1-[(2E)-N-(carbamoylmethyl)-4-oxo-4-phenylbut-2-enehydrazido]-1-oxopropan-2-yl]carbamoyl}ethyl]carbamate] |  | > 20000 nM |  | 10000 nM | 
7 | C[C@H](NC(=O)OCc1ccccc1)C(=O)N[C@@H](C)C(=O)NN(CC(N)=O)C(=O)C=CC(=O)Nc1ccccc1 [benzyl N-[(1S)-1-{[(2S)-1-[(2E)-3-[N-(carbamoylmethyl)hydrazido]-N-phenylprop-2-enamide]-1-oxopropan-2-yl]carbamoyl}ethyl]carbamate] | 20 nM | 10 nM | 700 nM |  | 
8 | C[C@H](NC(=O)OCc1ccccc1)C(=O)N[C@@H](C)C(=O)NN(CC(N)=O)C(=O)C=CC(=O)N1CC=C(c2ccccc2)CC1 [benzyl N-[(1S)-1-{[(2S)-1-[(2E)-N-(carbamoylmethyl)-4-oxo-4-(4-phenyl-1,2,3,6-tetrahydropyridin-1-yl)but-2-enehydrazido]-1-oxopropan-2-yl]carbamoyl}ethyl]carbamate] |  | 85 nM |  | 10 nM | 750 nM
9 | C[C@H](NC(=O)OCc1ccccc1)C(=O)N[C@@H](C)C(=O)NN(CC(N)=O)C(=O)C=CC(=O)N1CCCCC1 [benzyl N-[(1S)-1-{[(2S)-1-[(2E)-N-(carbamoylmethyl)-4-oxo-4-(piperidin-1-yl)but-2-enehydrazido]-1-oxopropan-2-yl]carbamoyl}ethyl]carbamate] | 500 nM |  | 1000 nM |  | 
10 | C[C@H](NC(=O)OCc1ccccc1)C(=O)N[C@@H](C)C(=O)NN(CC(N)=O)C(=O)C=CC(=O)N1CCCc2ccccc21 [benzyl N-[(1S)-1-{[(2S)-1-[(2E)-N-(carbamoylmethyl)-4-oxo-4-(1,2,3,4-tetrahydroquinolin-1-yl)but-2-enehydrazido]-1-oxopropan-2-yl]carbamoyl}ethyl]carbamate] |  | 4 nM |  | 3.5 nM | 70 nM
11 | C[C@H](NC(=O)OCc1ccccc1)C(=O)N[C@@H](C)C(=O)NN(CC(N)=O)C(=O)C=CC(=O)N1CCc2ccccc2C1 [benzyl N-[(1S)-1-{[(2S)-1-[(2E)-N-(carbamoylmethyl)-4-oxo-4-(1,2,3,4-tetrahydroisoquinolin-2-yl)but-2-enehydrazido]-1-oxopropan-2-yl]carbamoyl}ethyl]carbamate] |  | 25 nM |  | 10 nM | 200 nM
12 | C[C@H](NC(=O)OCc1ccccc1)C(=O)N[C@@H](C)C(=O)NN(CC(N)=O)C(=O)C=CC(=O)N(Cc1ccccc1)Cc1ccccc1 [benzyl N-[(1S)-1-{[(2S)-1-[(2E)-N,N-dibenzyl-3-[N-(carbamoylmethyl)hydrazido]prop-2-enamide]-1-oxopropan-2-yl]carbamoyl}ethyl]carbamate] |  | 450 nM | 45 nM | 10 nM | 
13 | C[C@H](NC(=O)OCc1ccccc1)C(=O)N[C@@H](C)C(=O)NN(CC(N)=O)C(=O)C=CC(=O)N1Cc2ccccc2C1 [benzyl N-[(1S)-1-{[(1S)-1-[N'-(carbamoylmethyl)-N'-[(2E)-4-(2,3-dihydro-1H-isoindol-2-yl)-4-oxobut-2-enoyl]hydrazinecarbonyl]ethyl]carbamoyl}ethyl]carbamate] |  | 4.5 nM |  | 20 nM | 300 nM
14 | C[C@H](NC(=O)OCc1ccccc1)C(=O)N[C@@H](C)C(=O)NN(CC(N)=O)C(=O)C=CC(=O)N(C)Cc1ccccc1 [benzyl N-[(1S)-1-{[(2S)-1-[(2E)-N-benzyl-3-[N-(carbamoylmethyl)hydrazido]-N-methylprop-2-enamide]-1-oxopropan-2-yl]carbamoyl}ethyl]carbamate] |  | < 1 nM |  | 0.55 nM | 
15 | CC=CC=CC(=O)N(CC(N)=O)NC(=O)[C@H](C)NC(=O)[C@H](C)NC(=O)OCc1ccccc1 [benzyl N-[(1S)-1-{[(1S)-1-[N'-(carbamoylmethyl)-N'-(2E,4E)-hexa-2,4-dienoylhydrazinecarbonyl]ethyl]carbamoyl}ethyl]carbamate] |  |  |  | 8000 nM | 
16 | CCOC(=O)C=CC(=O)N(CC(N)=O)NC(=O)[C@H](C)NC(=O)[C@H](C)NC(=O)OCc1ccccc1 [ethyl (2E)-4-[(2S)-2-[(2S)-2-{[(benzyloxy)carbonyl]amino}propanamido]-N'-(carbamoylmethyl)propanehydrazido]-4-oxobut-2-enoate] | 4.5 nM | 4.5 nM |  |  | 
17 | CCN(CC)C(=O)C=CC(=O)N(CC(N)=O)NC(=O)[C@H](C)NC(=O)[C@H](C)NC(=O)OCc1ccccc1 [benzyl N-[(1S)-1-{[(1S)-1-[N'-(carbamoylmethyl)-N'-[(2E)-3-(diethylcarbamoyl)prop-2-enoyl]hydrazinecarbonyl]ethyl]carbamoyl}ethyl]carbamate] | 2000 nM | 2700 nM |  |  | 
18 | C[C@H](NC(=O)OCc1ccccc1)C(=O)N[C@@H](C)C(=O)NN(CC(N)=O)C(=O)C=CC(=O)N(C)CCc1ccccc1 [benzyl N-[(1S)-1-{[(2S)-1-[(2E)-3-[N-(carbamoylmethyl)hydrazido]-N-methyl-N-(2-phenylethyl)prop-2-enamide]-1-oxopropan-2-yl]carbamoyl}ethyl]carbamate] |  |  | 600 nM | 50 nM | 
19 | C[C@H](NC(=O)OCc1ccccc1)C(=O)N[C@@H](C)C(=O)NN(CC(N)=O)C(=O)C=Cc1ccco1 [benzyl N-[(1S)-1-{[(1S)-1-[N'-(carbamoylmethyl)-N'-[(2E)-3-(furan-2-yl)prop-2-enoyl]hydrazinecarbonyl]ethyl]carbamoyl}ethyl]carbamate] |  | 7500 nM | > 2000 nM |  | 
